Measurements published in patent publication US5316935A, “Subtilisin variants suitable for hydrolysis and synthesis in organic media” (California Institute of Technology, priority 1992, dated 1994).

Experiments:
[1] = target: T1, Bacillus subtilis subtilisin E (subtilisin I168, aprA gene product), wild type, SEQ ID NO: 1 (Bacillus subtilis, UniProt P04189); assay: Transesterification of methyl ester to ethyl ester in organic solvents; format: biochemical; conditions: 1M ethanol, 32° C.
T1 construct: each contain 275 residues; made in house; host or cells: Bacillus subtilis DB428 (vector pKWC), secreted into the medium
Experimental: (§1) The activity of the D60N+Q103R+N218S (3M) subtilisin E triple variant was compared to that of the wild-type enzyme for the transesterification of N-acetyl-L-phenylalanine methyl ester to the ethyl ester in three organic solvents. The reactions were carried out in 2 mL volumes of the indicated solvent, containing 1 mg/mL of enzyme, 100 mM N-acetyl-L-phenylalanine methyl ester, 1M ethanol. The samples were incubated, with shaking, at 32° C., and the formation of the ethyl ester product was measured by capillary gas chromatography. Values of the kinetic constants kcat /KM are given in Table VII for the wild-type and 3M variant enzymes. In all three solvents, anhydrous hexane, hexane containing 0.1% water, and acetonitrile containing 0.1% water, the D60N+Q103R+N218S (3M) triple variant was considerably more efficient than the wild-type enzyme.

[2] = target: T2, Bacillus subtilis subtilisin E variant 3M (D60N + Q103R + N218S) (Bacillus subtilis, UniProt P04189, A256V/D166N/N324S/Q209R); assay: as above; format: biochemical; conditions: 1M ethanol, 32° C.
T2 construct: each contain 275 residues; made in house; host or cells: Bacillus subtilis DB428 (vector pKWC), secreted into the medium
T2 sequence (P04189 107-381 D166N/Q209R/A256V/N324S): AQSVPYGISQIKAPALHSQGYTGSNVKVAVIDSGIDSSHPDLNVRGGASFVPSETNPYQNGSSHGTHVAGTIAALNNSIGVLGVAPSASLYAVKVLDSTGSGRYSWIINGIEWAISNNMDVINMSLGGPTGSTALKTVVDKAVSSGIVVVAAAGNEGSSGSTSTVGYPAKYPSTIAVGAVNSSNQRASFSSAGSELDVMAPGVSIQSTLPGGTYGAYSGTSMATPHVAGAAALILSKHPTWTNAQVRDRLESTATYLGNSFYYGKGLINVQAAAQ
Experimental: as §1

T1 sequence (P04189 107-381): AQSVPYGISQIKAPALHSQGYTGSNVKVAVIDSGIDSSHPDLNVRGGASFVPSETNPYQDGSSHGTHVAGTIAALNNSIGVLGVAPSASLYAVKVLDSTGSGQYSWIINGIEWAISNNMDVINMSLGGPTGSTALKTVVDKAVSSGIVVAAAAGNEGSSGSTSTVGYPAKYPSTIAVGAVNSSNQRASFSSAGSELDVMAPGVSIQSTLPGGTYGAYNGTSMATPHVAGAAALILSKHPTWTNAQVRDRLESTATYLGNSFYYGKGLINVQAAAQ

COC(=O)[C@H](Cc1ccccc1)NC(C)=O [N-acetyl-L-phenylalanine methyl ester]
kcat /KM ([1]; Ch3 CN (0.1% water)): 0.3 Min^-1 mg^-1 × 10^-3
kcat /KM ([1]; hexane (0.1% water)): 5 Min^-1 mg^-1 × 10^-3
kcat /KM ([1]; hexane (anhydrous)): 0.4 Min^-1 mg^-1 × 10^-3
kcat /KM ([2]; Ch3 CN (0.1% water)): 3.1 Min^-1 mg^-1 × 10^-3
kcat /KM ([2]; hexane (0.1% water)): 220 Min^-1 mg^-1 × 10^-3
kcat /KM ([2]; hexane (anhydrous)): 17 Min^-1 mg^-1 × 10^-3
